{
  "source": "BindingDB's records for doi:10.1124/mol.59.3.434",
  "about": "(Smithkline Beecham Pharmaceuticals, 2001)",
  "molecular_target": "Histamine H4 receptor (Homo sapiens, UniProt Q9H3N8)",
  "sequence (Q9H3N8 whole entry)": "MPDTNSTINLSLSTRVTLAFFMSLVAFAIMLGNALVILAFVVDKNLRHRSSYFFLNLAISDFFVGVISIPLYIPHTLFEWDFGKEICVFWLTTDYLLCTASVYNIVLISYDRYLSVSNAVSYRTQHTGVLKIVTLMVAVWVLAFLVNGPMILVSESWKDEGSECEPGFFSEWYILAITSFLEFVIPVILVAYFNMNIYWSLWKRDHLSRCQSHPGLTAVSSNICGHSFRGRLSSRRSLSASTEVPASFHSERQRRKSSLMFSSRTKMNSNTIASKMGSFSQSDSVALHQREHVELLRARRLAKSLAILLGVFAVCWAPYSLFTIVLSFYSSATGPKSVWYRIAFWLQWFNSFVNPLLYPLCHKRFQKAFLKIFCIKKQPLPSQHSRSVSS",
  "note": "Where “and” joins values, the source holds several entries; their conditions need not be identical. Identical values can stand only once.",
  "data": [
    {"smiles": "C[C@@H](N)Cc1c[nH]cn1", "values": [
      {"measurement": "Ki", "value": "348 nM and 232 nM"}
    ]}
  ]
}
